# Data as given in patent US3981999A, “Fish disease treatment” (Dainippon Pharmaceutical Co., Ltd., priority 1973, dated 1976).
# Legend:
# [1] = test system: Aeromonas liquefaciens Y-62; assay: Oral administration to eels after Aeromonas infection; type: in vivo, eels (Anguilla Japonica); conditions: oral 3.1 mg/kg/day at 4 hours after infection and next day; seventh day
# Procedure: Groups of eels (Anguilla Japonica, average weight 100 g) (each group consisting of 50 eels) were infected intramuscularly with Aeromonas liquefaciens Y-62 (10^9 germs/fish). A suspension consisting of a diet containing PA was orally administered to the eels at 4 hours after the infection and on the next day, using a catheter, at a dose of 3.1 mg/kg/day.
# The temperature of the water was kept at 25° to 26°C. during the entire experimental period.
# [2] = test system: Aeromonas liquefacieus Y-62; assay: Oral effect against Aeromonas infection in goldfish; type: in vivo; conditions: for Percent survival: 5 days; for Number of surviving fish after 1 day / Number of surviving fish after 2 days / Number of surviving fish after 3 days / Number of surviving fish after 4 days / Number of surviving fish after 5 days: day 0: PA 10, others 5 fish
# Procedure: Goldfish each weighing about 6 - 7 g were given a fish food containing each of the test compounds. After 30 minutes, the fish were infected intramuscularly with Aeromonas liquefacieus Y-62 (about 10^7 germs/fish) under ether anesthesia. […] In the same manner, the control group was given the same fish food without the test compound.
# [3] = test system: Aeromonas liquefaciens Y-62; assay: Bathing effect against Aeromonas infection in goldfish; type: in vivo; conditions: for Percent survival: 5 days; for Number of survival after 1 day / Number of survival after 2 days / Number of survival after 3 days / Number of survival after 4 days / Number of survival after 5 days: day 0: 6 fish
# Procedure: Goldfish each weighing about 8 g were infected intramuscularly with Aeromonas liquefaciens Y-62 (10^7 germs/fish) under ether anesthesia. The fish were grouped and each group was placed in 6 liters of fresh water (23° to 27°C.) containing PA in the amount indicated in Table 3.
# Then, observation was made for the following 5 days. In the same manner, the control group was placed in 6 liters of fresh water without any test compound incorporated in it.
# eels = assay: Oral toxicity in eels; type: in vivo, eels (Anguilla Japonica); conditions: oral 2000 mg/kg, 7 days, 10 eels per group, 27° to 27.5°C
# Procedure: A suspension of PA in 0.2% carboxymethylcellulose was orally given to groups each consisting of 10 eels (Anguilla Japonica, about 160 g) and observation was made for the following 7 days. The temperature of the water was kept at 27° to 27.5°C.
# [4] = test system: Aeromonas liquefaciens Y-62; assay: Oral administration to eels starting the day before Aeromonas infection; type: in vivo, eels (Anguilla Japonica); conditions: oral 1.56 mg/kg/day for 2 days starting the day before infection; seventh day
# Procedure: Groups of eels (Anguilla Japonica, average weight 100 g) (each group consisting of 50 fish) were infected intramuscularly with Aeromonas liquefaciens Y-62 (10^9 germs/fish). For 2 days starting at the day before infection, a suspension consisting of a diet containing PA was orally administered to the eels using a catheter at a dose of 1.56 mg/kg/day. On the seventh day after the infection, the eels were observed.
# During the experimental period, the temperature of the water was maintained at 25° to 26°C.
# goldfish [5] = assay: Oral toxicity in goldfish; type: in vivo; conditions: 10% in diet (PA 800, AT-1493 955, AT-1557 935, AT-1475 923 mg/kg)
# Procedure: A diet containing 10% of each of the test compounds was given orally to groups each consisting of 5 goldfish each weighing 6 to 10 g, and observation was made for the following 7 days. The temperature of the water was maintained at 28°C.
# [6] = test system: Pseudomonas anguilliseptica S-1; assay: MIC by broth serial dilution; type: cell-based; conditions: S1, bouillon pH 7.2, 20°C, 7 hours, read-out: MIC
# Procedure: (§1) The MIC (minimum inhibitory concentration) of a test compound was determined by the serial dilution method on various pathogenic microorganisms incubated under the following experimental conditions. The lowest concentration at which the visible growth of the organism was inhibited was considered as MIC. […]
# (§2) the broth-dilution method bouillon, pH 7.2, except for Vibrio (3% NaCl-bouillon, pH 7.2), Pasteurella (2% NaCl-Brain Heart Infusion, pH 7.3 and Chondrococcus (TY medium, pH 7.3) 1 drop of a bacterial suspension per test tube (100 - 1000 minimal growing units in the medium) 25°C, except for Pseud. anguilliseptica (20°C)
# (§3) 48 hours, except for Pseudo. anguilliseptica ([…])
# [7] = test system: Pasteurella piscicida K-1; assay: MIC by broth serial dilution; type: cell-based; conditions: Photobacterium damselae, K1; 2% NaCl-Brain Heart Infusion pH 7.3, 25°C, 48 hours; read-out: MIC
# Procedure: as §1, §2, §3
# [8] = test system: Pasteurella piscicida Al-3; assay: MIC by broth serial dilution; type: cell-based; conditions: Photobacterium damselae, AL3; 2% NaCl-Brain Heart Infusion pH 7.3, 25°C, 48 hours; read-out: MIC
# Procedure: as §1, §2, §3
# [9] = test system: Aeromonas liquefaciens Y-62; assay: MIC by broth serial dilution; type: cell-based; conditions: Aeromonas hydrophila, Y62; bouillon pH 7.2, 25°C, 48 hours; read-out: MIC
# Procedure: as §1, §2, §3
# goldfish [10] = assay: Bathing toxicity in goldfish; type: in vivo; conditions: for Mortality: 5 days; for Number of the survival after 1 day / Number of the survival after 2 days / Number of the survival after 3 days / Number of the survival after 4 days / Number of the survival after 5 days: day 0: 6 fish
# Procedure: (§4) Groups of goldfish each weighing 7 to 8 g (each group consisting of 6 goldfish) were placed in 6 liters of fresh water (27° to 30°C.) containing PA in varying concentrations with aeration for 5 days. During this time, observation was made.
# [11] = Bathing toxicity in goldfish; type: in vivo; conditions: fresh water; goldfish, bathing for 5 days, 27° to 30°C; read-out: LC50 (50% lethal concentration)
# Procedure: as §4
# [12] = 0.03% in diet (PA 2.5, AT-1493 2.5, AT-1557 2.2 mg/kg)
# [13] = 0.1% in diet (PA 6.1, AT-1493 7.5, AT-1557 7.6, AT-1475 7.5 mg/kg)
compound,measurement,setting,value
"CCn1cc(C(=O)O)c(=O)c2cnc(N3CCCC3)nc21 [PA, 5,8-dihydro-2-pyrrolidino-8-ethyl-5-oxopyrido[2,3-d]pyrimidine-6-carboxylic acid]",rate of survival,[1],100%
same,Percent survival,[2]; [12],60%
same,Number of surviving fish after 1 day,[2]; [12],10
same,Number of surviving fish after 2 days,[2]; [12],9
same,Number of surviving fish after 3 days,[2]; [12],7
same,Number of surviving fish after 4 days,[2]; [12],6
same,Number of surviving fish after 5 days,[2]; [12],6
same,Percent survival,[2]; [13],100%
same,Number of surviving fish after 1 day,[2]; [13],10
same,Number of surviving fish after 2 days,[2]; [13],10
same,Number of surviving fish after 3 days,[2]; [13],10
same,Number of surviving fish after 4 days,[2]; [13],10
same,Number of surviving fish after 5 days,[2]; [13],10
same,Percent survival,[3]; bathing conc. 0.5 μg/ml,100%
same,Number of survival after 1 day,[3]; bathing conc. 0.5 μg/ml,6
same,Number of survival after 2 days,[3]; bathing conc. 0.5 μg/ml,6
same,Number of survival after 3 days,[3]; bathing conc. 0.5 μg/ml,6
same,Number of survival after 4 days,[3]; bathing conc. 0.5 μg/ml,6
same,Number of survival after 5 days,[3]; bathing conc. 0.5 μg/ml,6
same,Percent survival,[3]; bathing conc. 1 μg/ml,100%
same,Number of survival after 1 day,[3]; bathing conc. 1 μg/ml,6
same,Number of survival after 2 days,[3]; bathing conc. 1 μg/ml,6
same,Number of survival after 3 days,[3]; bathing conc. 1 μg/ml,6
same,Number of survival after 4 days,[3]; bathing conc. 1 μg/ml,6
same,Number of survival after 5 days,[3]; bathing conc. 1 μg/ml,6
same,survival and external appearance,eels,All eels survived without abnormality of their external appearance
same,eels survived,[4],80%
same,Mortality,goldfish [5]; 7 days,0%
same,Number of the survival after 1 day from administration,goldfish [5]; day 0: 5 fish,5
same,Number of the survival after 2 days from administration,goldfish [5]; day 0: 5 fish,5
same,Number of the survival after 3 days from administration,goldfish [5]; day 0: 5 fish,5
same,Number of the survival after 4 days from administration,goldfish [5]; day 0: 5 fish,5
same,Number of the survival after 5 days from administration,goldfish [5]; day 0: 5 fish,5
same,Number of the survival after 6 days from administration,goldfish [5]; day 0: 5 fish,5
same,Number of the survival after 7 days from administration,goldfish [5]; day 0: 5 fish,5
same,MIC,[6],0.1 µg/mL
same,MIC,[7],1 µg/mL
same,MIC,[8],0.3 µg/mL
same,MIC,[9],1 µg/mL
same,Mortality,goldfish [10]; bathing conc. 4 μg/ml,0%
same,Number of the survival after 1 day,goldfish [10]; bathing conc. 4 μg/ml,6
same,Number of the survival after 2 days,goldfish [10]; bathing conc. 4 μg/ml,6
same,Number of the survival after 3 days,goldfish [10]; bathing conc. 4 μg/ml,6
same,Number of the survival after 4 days,goldfish [10]; bathing conc. 4 μg/ml,6
same,Number of the survival after 5 days,goldfish [10]; bathing conc. 4 μg/ml,6
same,Mortality,goldfish [10]; bathing conc. 8 μg/ml,20%
same,Number of the survival after 1 day,goldfish [10]; bathing conc. 8 μg/ml,6
same,Number of the survival after 2 days,goldfish [10]; bathing conc. 8 μg/ml,6
same,Number of the survival after 3 days,goldfish [10]; bathing conc. 8 μg/ml,5
same,Number of the survival after 4 days,goldfish [10]; bathing conc. 8 μg/ml,5
same,Number of the survival after 5 days,goldfish [10]; bathing conc. 8 μg/ml,5
same,Mortality,goldfish [10]; bathing conc. 16 μg/ml,100%
same,Number of the survival after 1 day,goldfish [10]; bathing conc. 16 μg/ml,6
same,Number of the survival after 2 days,goldfish [10]; bathing conc. 16 μg/ml,6
same,Number of the survival after 3 days,goldfish [10]; bathing conc. 16 μg/ml,1
same,Number of the survival after 4 days,goldfish [10]; bathing conc. 16 μg/ml,0
same,LC50 at 120 h,[11],10.1 µg/mL
